Laboratory results from patent US20260335310A1, “GEPOTIDACIN FOR USE IN THE TREATMENT OF BACTERIAL PROSTATITIS” (GLAXOSMITHKLINE INTELLECTUAL PROPERTY DEVELOPMENT LIMITED, priority 2022, published 2026).
Where two headings read alike, the source gives them in different places.

Legend:
[1] = In vivo microdialysis of unbound gepotidacin in blood, muscle and prostate of healthy and E. coli infected rats; set-up: species or system rat; details: for Kp uu: rat, iv, 20 mg/kg
Source text: The example herein describes microdialysis experiments in E. coli infected rats to measure tissue distribution of unbound gepotidacin. In vivo microdialysis experiments simultaneously determined unbound gepotidacin concentrations in rat prostate, muscle, and blood. It is important to understand the tissue distribution of unbound gepotidacin, especially in the target prostate tissue, since gepotidacin must diffuse through capillary membranes to reach the prostate. An assumption that the plasma concentration of gepotidacin represents a suitable surrogate of prostate concentrations, without prostate tissue confirmation, may lead to erroneous conclusions, especially since the pathogen is localized in the prostate.
(§1) An Escherichia coli prostatitis model in rats was obtained as follows. Four days before microdialysis, rats (n=11) were infected with Escherichia coli ATCC 13441 in the prostatic urethra, to induce E. coli prostatitis, at an inoculum of 10^7 CFU/rat. Healthy rats (n=9) were not infected with E. coli as control.
(§2) The day before the experiment, two CMA/20 probes (membrane length 10 mm, Harvard Apparatus, Courtaboeuf France) were inserted into right jugular vein and the right hind leg muscle of healthy and infected rats under anesthesia and analgesic treatment. In parallel, catheters were inserted into the femoral vein and artery to administer gepotidacin intravenously (IV) and to collect blood samples for determination of total plasma gepotidacin concentrations, respectively. The rats were allowed to recover consciousness, and food was withdrawn for 12 hours.
(§3) On the day of the experiment, healthy control and infected rats were re-anesthetized and a CMA/20 Elite probe (membrane length 4 mm) was inserted into the prostate. All probes were connected to infusion pumps and perfused with Ringer containing a calibrator (((R)-1-((4-(((2,3-dihydro-[1,4]oxathiino[2,3-c]pyridin-7-yl)methyl)amino)piperidin-1-yl)methyl)-1,2-dihydro-3H,8H-2a,5,8a-triazaacenaphthylene-3,8-dione; […]) at a flow rate of 0.5 μL/min with Ringer. After an equilibration period, gepotidacin was administered by IV bolus at a dose of 20 mg/kg. Blood, muscle, and prostate dialysates were collected every 10 minutes for 90 minutes, and then every 30 minutes […]. Seven blood samples were also collected for analysis of gepotidacin pharmacokinetics in total plasma. Gepotidacin concentrations were measured in dialysates and in plasma by LC-MS/MS.
Pharmacokinetic (PK) parameters were determined in each individual rat by a noncompartmental approach according to standard procedures and with the software Phoenix WinNonLin 7. (Certara, Princeton, NJ) Total unbound body clearance (CLu) was calculated as CLu=dose/AUCu,blood, where AUCu,blood is the total area under the unbound blood concentration-versus-time curve from zero to infinity, equal to the area under the curve from zero to the last measured concentration AUC0-last,u,blood added to the area under the curve from the last measured concentration to infinity AUClast-infinity,u,blood. AUC0-last,u,blood was calculated by linear-logarithmic trapezoidal method. AUClast-infinity,u,blood the area remaining under the curve after the last measured concentration, C(last)u,blood was determined from C(last)u,blood/keblood. The elimination rate constant (keblood) and its corresponding half-life (t1/2,blood) were estimated by least squares fit of the data points (log concentration-time). The linear-logarithmic trapezoidal method was used to compute the area under the unbound blood concentration-versus-time moment curve AUMC0-last,u,blood from zero to the last measured concentration. AUMClast-infinity,u,blood the area remaining under the curve after the last measured concentration was determined from: tlast×C(last)u,blood/keblood+C(last)u,blood/keblood^2. The mean residence time from zero to infinity, MRT0-infinity was determined from AUMC0-infinity,u,blood/AUC0-infinity,u,blood. […]

[2] = Total plasma pharmacokinetics of gepotidacin in healthy and E. coli infected rats; format: in vivo, rat; details: IV bolus 20 mg/kg; for Vd / half-life / clearance: rat, plasma, iv, 20 mg/kg; for clearance: read-out: CLt,plasma
Source text: as §1, §2, §3
Pharmacokinetic (PK) parameters were determined in each individual rat by a noncompartmental approach according to standard procedures and with the software Phoenix WinNonLin 7. (Certara, Princeton, NJ) Total unbound body clearance (CLu) was calculated as CLu=dose/AUCu,blood, where AUCu,blood is the total area under the unbound blood concentration-versus-time curve from zero to infinity, equal to the area under the curve from zero to the last measured concentration AUC0-last,u,blood added to the area under the curve from the last measured concentration to infinity AUClast-infinity,u,blood. AUC0-last,u,blood was calculated by linear-logarithmic trapezoidal method. AUClast-infinity,u,blood the area remaining under the curve after the last measured concentration, C(last)u,blood was determined from C(last)u,blood/keblood. The elimination rate constant (keblood) and its corresponding half-life (t1/2,blood) were estimated by least squares fit of the data points (log concentration-time). The linear-logarithmic trapezoidal method was used to compute the area under the unbound blood concentration-versus-time moment curve AUMC0-last,u,blood from zero to the last measured concentration. AUMClast-infinity,u,blood the area remaining under the curve after the last measured concentration was determined from: tlast×C(last)u,blood/keblood+C(last)u,blood/keblood^2. The mean residence time from zero to infinity, MRT0-infinity was determined from AUMC0-infinity,u,blood/AUC0-infinity,u,blood. The volume of distribution (VSSu) was obtained from MRT0-infinity×CLu. The AUCu and t1/2,u in tissues were also estimated by the same procedure.

[3] = healthy rats (n = 9), blood, unbound, IV bolus 20 mg/kg
[4] = healthy rats (n = 9), muscle, unbound, IV bolus 20 mg/kg
[5] = healthy rats (n = 9), prostate, unbound, IV bolus 20 mg/kg
[6] = infected rats (n = 11; E. coli ATCC 13441 prostatitis), blood, unbound, IV bolus 20 mg/kg
[7] = infected rats (n = 11; E. coli ATCC 13441 prostatitis), muscle, unbound, IV bolus 20 mg/kg
[8] = infected rats (n = 11; E. coli ATCC 13441 prostatitis), prostate, unbound, IV bolus 20 mg/kg
[9] = prostatitis (infected) rats, FIG. 1C-1D
[10] = infected rats (n = 11; E. coli ATCC 13441 prostatitis)

- Half-life and Cmax,u in blood, muscle, and prostate, comparison of tissues ([1]; healthy control rats): similar
- Unbound concentration time profile in blood ([1]; healthy control rats, FIG. 1A, 1B): biphasic
- CLu (total unbound body clearance) [1, 3]: 44.4 ± 5.1 mL/min/kg
- Cmax,u [1, 3]: 10300 ± 2600 ng/mL
- VSSu (volume of distribution) [1, 3]: 3.967 ± 0.557 L/kg
- t1/2,u [1, 3]: 1.3 ± 0.317 h
- Cmax,u [1, 4]: 8600 ± 2500 ng/mL
- t1/2,u [1, 4]: 1.3 ± 0.15 h
- Cmax,u [1, 5]: 8200 ± 1900 ng/mL
- t1/2,u [1, 5]: 1.13 ± 0.183 h
- Cmax in prostate, infected compared to healthy rats ([1]; infected rats): slightly lower compared to healthy rats
- CLu (total unbound body clearance) [1, 6]: 35.8 ± 5.5 mL/min/kg
- Cmax,u [1, 6]: 12300 ± 1900 ng/mL
- VSSu (volume of distribution) [1, 6]: 3.344 ± 0.59 L/kg
- t1/2,u [1, 6]: 1.43 ± 0.383 h
- Cmax,u [1, 7]: 9900 ± 3800 ng/mL
- t1/2,u [1, 7]: 1.28 ± 0.367 h
- Cmax,u [1, 8]: 6600 ± 2700 ng/mL
- t1/2,u [1, 8]: 1.38 ± 0.15 h
- Muscle/blood and prostate/blood AUCu ratios, infected compared to healthy rats ([1]; infected vs healthy rats, p>0.05, Wilcoxon test, R software): not significantly different
- Unbound concentration time profile in blood [1, 9]: biphasic
- Unbound concentrations in prostate relative to blood [1, 9]: slightly lower than in blood
- Kp uu ([1]; muscle, healthy rats (n = 9), unbound, IV bolus 20 mg/kg, read-out: AUCu muscle/blood): 1.06 ± 0.17
- Kp uu ([1]; muscle, infected rats (n = 11; E. coli ATCC 13441 prostatitis), unbound, IV bolus 20 mg/kg, read-out: AUCu muscle/blood): 1.03 ± 0.13
- Kp uu ([1]; muscle/blood and prostate/blood, healthy control rats, muscle/blood and prostate/blood, read-out: AUCu ratios): ~1
- Kp uu ([1]; prostate, healthy rats (n = 9), unbound, IV bolus 20 mg/kg, read-out: AUCu prostate/blood): 0.89 ± 0.17
- Kp uu ([1]; prostate, infected rats (n = 11; E. coli ATCC 13441 prostatitis), unbound, IV bolus 20 mg/kg, read-out: AUCu prostate/blood): 0.78 ± 0.21
- AUC ([2]; healthy rats (n = 9)): 6750 ± 950 ng·h/mL
- AUC [2, 10]: 7870 ± 2380 ng·h/mL
- Vd ([2]; healthy rats (n = 9)): 4.26 ± 0.851 L/kg
- half-life ([2]; healthy rats (n = 9)): 1.2 ± 0.19 h
- clearance ([2]; healthy rats (n = 9)): 50.3 ± 7.1 mL/min/kg
- Vd [2, 10]: 4.02 ± 0.997 L/kg
- half-life [2, 10]: 1.27 ± 0.165 h
- clearance [2, 10]: 45.6 ± 12.8 mL/min/kg
SMILES: O=c1ccc2ncc(=O)n3c2n1C[C@H]3CN1CCC(NCc2cc3c(cn2)OCCC3)CC1 [gepotidacin, (2R)-2-({4-[(3,4-dihydro-2/pyrano[2,3-c]pyridin-6-ylmethyl)amino]-1-piperidinyl}methyl)-1,2-dihydro-3H,8/2a,5,8a-triazaacenaphthylene-3,8-dione]
- Concentration profiles in prostate and muscle relative to blood ([1]; healthy control rats, with the exception of the first time point, FIG. 1A): almost superimposed with blood concentrations
- Half-lives, comparison of blood, muscle, and prostate ([1]; infected rats): the same between blood, muscle, and prostate
